Source: patent US11203582B2, “Benzamide derivatives for inhibiting endoplasmic reticulum (ER) stress” (The Board of Regents of the University of Oklahoma, priority 2017, dated 2021)
Like-named read-outs stand apart in the source and are kept apart here.

System: INS-1 cells
Experiment: Cell survival assay, intracellular ATP (CellTiter-Glo), INS-1 cells treated with Tm
Format: cell-based, rat
Settings: for EC50: read-out: EC50
Protocol: A structure-activity-relationship (SAR) study was thus conducted to improve the weak potency of lead compound 1. Newly synthesized or commercially available compounds were tested for their β-cell-protective activity against ER stress in rat INS-1 β-cells. […] The maximum activities and the concentrations that reach half-maximal activity (EC50) of the compounds were evaluated by the degree of increase in viability of INS-1 cells co-treated with the compounds in the presence of Tm compared with Tm treatment alone. Maximum activity value in the tables is reported as % rescue from Tm (0.1 μg/mL)-induced reduction of cell viability. The values for Tm treatment alone and control (DMSO, without Tm) treatment are designated as 0% and 100%, respectively in all tables. EC50 values (the concentrations that reach half-maximal activity) for INS-1 cell viability were calculated with GraphPad Prism from the data of ten 2-fold serial titration points in all tables. All experiments were performed in triplicate in all tables.
INS-1 cells were cultured in RPMI 1640 (Corning, N.Y., USA) supplemented with 10% FBS (Atlanta Biologicals, Norcross, Ga.), HEPES (10 mM, Life Technologies, CA, USA), sodium pyruvate (1 mM, Corning), 2-mercaptoethanol (50 μM, Sigma, St Louis, Mo., USA) and antibiotics (100 UI/mL penicillin and 100 μg/mL streptomycin, Corning). βTC6 cells were cultured in DMEM (Corning) with 15% FBS, sodium pyruvate (1 mM, Corning), non-essential amino acids (1 mM, Thermo, Ill., USA), GlutaMAX (1 mM, Life Technologies) and antibiotics (100 UI/mL penicillin and 100 μg/mL streptomycin). All cells were grown at 37° C. in a humidified 5% CO2 atmosphere.
INS-1 cells or βTC6 cells were seeded at 3×10^3 cells/well in a 384-well plate and treated with compounds at the indicated concentrations. After 3 d treatment, the medium was aspirated and 20 μL/well of CellTiter-Glo reagent (Promega, WI, USA) was added for the detection of intracellular ATP levels. Cell viability was measured with an EnVision multilabel plate reader (PerkinElmer, MA, USA).

[1] = INS-1 cells, Tm-induced ER stress
[2] = Table 2, INS-1 cell viability, Tm 0.1 μg/mL, 72 h
[3] = Table 2, INS-1 cells, Tm 0.1 μg/mL, 72 h, Tm alone 0%, DMSO control 100%
[4] = Table 3, INS-1 cells, Tm 0.1 μg/mL, 72 h, Tm alone 0%, DMSO control 100%
[5] = Table 3, INS-1 cell viability, Tm 0.1 μg/mL, 72 h

O=C(NCCc1cccc(Cl)c1)c1ccc2c(c1)OCCO2 [Compound 1, N-(3-chlorophenethyl)-2,3-dihydrobenzo[b][1,4]dioxine-6-carboxamide]
maximum activity (β-cell-protective activity) [1]: 42% | EC50 (Rattus norvegicus, INS1, INS-1 cells, Tm-induced ER stress): 21 µM | EC50 (Rattus norvegicus, INS1, Table 1, INS-1 cell viability, Tm 0.1 μg/mL, 72 h): 21 ± 5.7 µM | Emax (Rattus norvegicus, INS1, Table 1, INS-1 cells, Tm 0.1 μg/mL, 72 h, Tm alone 0%, DMSO control 100%, read-out: Maximum activity (% rescue)): 42%

COc1ccc(C(=O)NCCc2cccc(Cl)c2)cc1OC [Compound 8h]
EC50 (Table 1, INS-1 cell viability, Tm 0.1 μg/mL, 72 h): 24 ± 2.1 µM | Maximum activity (% rescue) (Table 1, INS-1 cells, Tm 0.1 μg/mL, 72 h, Tm alone 0%, DMSO control 100%): 46% ± 17%

O=C(NCc1ccccc1Cl)c1ccc2c(c1)OCCO2 [Compound 9a]
EC50 [2]: 25 ± 6.9 µM | Maximum activity (% rescue) [3]: 43% ± 12%

O=C(NCc1ccccc1Br)c1ccc2c(c1)OCCO2 [Compound 9b]
EC50 [2]: 25 ± 2.1 µM | Maximum activity (% rescue) [3]: 38% ± 14%

O=C(NCc1cccc(Cl)c1)c1ccc2c(c1)OCCO2 [Compound 9c]
EC50 [2]: 9.5 ± 1.2 µM | Maximum activity (% rescue) [3]: 57% ± 11%

O=C(NCc1cccc(Br)c1)c1ccc2c(c1)OCCO2 [Compound 9d]
EC50 [2]: 5.5 ± 0.7 µM | Maximum activity (% rescue) [3]: 69% ± 9%

O=C(NCc1ccc(Cl)cc1)c1ccc2c(c1)OCCO2 [Compound 9e]
maximum activity (β-cell-protective activity) [1]: 69% | EC50 [1]: 2.8 µM | Maximum activity (% rescue) [3]: 69% ± 12% | improvement of EC50 value over the corresponding ethylene derivative (methylene vs ethylene linker (9e vs 8d; 11d vs 11b)): ~6 fold

O=C(NCc1ccc(Cl)c(Cl)c1)c1ccc2c(c1)OCCO2 [Compound 9f]
EC50 [2]: 3.6 ± 0.9 µM | Maximum activity (% rescue) [3]: 68% ± 10%

Cc1ccccc1C(=O)NCCc1ccccc1 [Compound 10a]
Maximum activity (% rescue) [4]: 6% ± 5%

CC(C)Sc1ccccc1C(=O)NCCc1ccccc1 [Compound 10b]
EC50 [5]: > 30 µM | Maximum activity (% rescue) [4]: 30% ± 8%

O=C(NCCc1ccccc1)c1cccc(F)c1 [Compound 10c]
Maximum activity (% rescue) [4]: <0 % rescue

O=C(NCCc1ccccc1)c1cccc([N+](=O)[O-])c1 [Compound 10d]
Maximum activity (% rescue) [4]: <0 % rescue

Nc1cccc(C(=O)NCCc2ccccc2)c1 [Compound 10e]
Maximum activity (% rescue) [4]: <0 % rescue

CCOc1cccc(C(=O)NCCc2ccccc2)c1 [Compound 10f]
EC50 [5]: 26 ± 4.5 µM | Maximum activity (% rescue) [4]: 49% ± 11%

CS(=O)(=O)Nc1cccc(C(=O)NCCc2ccccc2)c1 [Compound 10g]
EC50 [5]: 25 ± 2.1 µM | Maximum activity (% rescue) [4]: 24% ± 8%

Cc1ccc(C(=O)NCCc2ccccc2)cc1 [Compound 10h]
EC50 [5]: 20 ± 5.4 µM | Maximum activity (% rescue) [4]: 25% ± 5%

C#CCOc1ccc(C(=O)NCCc2ccccc2)cc1 [Compound 10i]
EC50 [5]: > 30 µM | Maximum activity (% rescue) [4]: 54% ± 8%

CN(C)S(=O)(=O)c1ccc(C(=O)NCCc2ccccc2)cc1 [Compound 10j]
EC50 [5]: 19 ± 2.1 µM | Maximum activity (% rescue) [4]: 37% ± 6%

O=C(NCCc1ccccc1)c1ccc(CN2CCCC2)cc1 [Compound 10k]
maximum activity (β-cell-protective activity) [1]: 31% | EC50 [5]: 11 ± 1.9 µM | Maximum activity (% rescue) [4]: 31% ± 7%
